Consider eight compounds from ChEMBL document CHEMBL3774361, “Synthesis and evaluation of thieno[2,3-d]pyrimidin-4(3H)-ones as potential antitubercular agents” (Medchemcomm, 2015).

A short description of data set [1]: Selectivity index, ratio of GI50 for human THP1 cells to MIC90 for active stage of Mycobacterium bovis BCG ATCC 35743. Type of data set: toxicity, cell-based, THP-1. The settings on record: read-out: Selectivity Index.
Data set [2] is described as follows: Selectivity index, ratio of GI50 for human THP1 cells to MIC90 for active stage of Mycobacterium tuberculosis H37Ra. The class given is toxicity, cell-based, THP-1. Conditions: read-out: Selectivity Index.
A short description of data set [3]: Selectivity index, ratio of GI50 for human HCT116 cells to MIC90 for active stage of Mycobacterium bovis BCG ATCC 35743. The settings on record: read-out: Selectivity Index. The class given is toxicity, cell-based, HCT-116.
A short description of data set [4]: Selectivity index, ratio of GI50 for human HCT116 cells to MIC90 for active stage of Mycobacterium tuberculosis H37Ra. The class given is toxicity, cell-based, HCT-116. The settings on record: read-out: Selectivity Index.
Data set [5] in a line: Selectivity index, ratio of GI50 for human A549 cells to MIC90 for active stage of Mycobacterium bovis BCG ATCC 35743. Type of data set: toxicity, cell-based. The settings on record: read-out: Selectivity Index.
The nature of data set [6]: Selectivity index, ratio of GI50 for human A549 cells to MIC90 for active stage of Mycobacterium tuberculosis H37Ra. Type of data set: toxicity, cell-based. Conditions: read-out: Selectivity Index.
Data set [7] can be described thus: Selectivity index, ratio of GI50 for human MCF7 cells to MIC90 for active stage of Mycobacterium bovis BCG ATCC 35743. The class given is toxicity, cell-based. The settings on record: read-out: Selectivity Index.
The nature of data set [8]: Selectivity index, ratio of GI50 for human MCF7 cells to MIC90 for active stage of Mycobacterium tuberculosis H37Ra. Type of data set: toxicity, cell-based. Conditions: read-out: Selectivity Index.
The nature of data set [9]: Cytotoxicity against human THP1 cells incubated for 1 to 11 days by MTT assay. The class given is cell-based, THP-1. On the technique in general: Formazan colour is commonly taken as a measure of viable cells.
Data set [10] is described as follows: Cytotoxicity against human HCT116 cells incubated for 1 to 11 days by MTT assay. The class given is cell-based, HCT-116.
Data set [11] relates to Mycobacterium tuberculosis. Briefly: Antitubercular activity against active stage of Mycobacterium tuberculosis H37Ra assessed as cell viability after 8 days by XTT reduction menadione assay. Type of data set: functional. Conditions: 192 h.
For data set [12], the system named is Mycobacterium tuberculosis. Briefly: Antitubercular activity against dormant stage of Mycobacterium tuberculosis H37Ra assessed as cell viability after 12 days by XTT reduction menadione assay. Type of data set: functional. The settings on record: 288 h.
A short description of data set [13]: Antibacterial activity against active stage of Mycobacterium bovis BCG ATCC 35743 assessed as cell viability after 8 days by nitrate reductase assay. Type of data set: functional, Mycobacterium bovis BCG str. ATCC 35743. Conditions: Mycobacterium tuberculosis variant bovis BCG, ATCC 35743, 192 h.
Data set [14] in a line: Antibacterial activity against dormant stage of Mycobacterium bovis BCG ATCC 35743 assessed as cell viability after 12 days by nitrate reductase assay. Type of data set: functional, Mycobacterium bovis BCG str. ATCC 35743. Conditions: Mycobacterium tuberculosis variant bovis BCG, ATCC 35743, 288 h.
The nature of data set [15]: Cytotoxicity against human MCF7 cells incubated for 1 to 11 days by MTT assay. The class given is cell-based.
The nature of data set [16]: (§1) Cytotoxicity against human A549 cells incubated for 1 to 11 days by MTT assay. The class given is cell-based. Conditions: A549 cells.
Data set [17] concerns A549. The data set is described as §1. The settings on record: a549. The class given is cell-based.

≈ marks a conversion by molar mass, not a printed value.

Take `CCCCCn1cnc2sc(CC)cc2c1=O`: the selectivity ratio was 10 in data set [1]; 2 in data set [2]; 10 in [3]; 2 in [4]; > 10 in [5]; 2 in data set [6]. The selectivity ratio in data set [7] was > 10; in data set [8] it was 2. For the same compound, the GI50 in [9], in [10], in data set [15] and in data set [16] was > 100 µg/mL each time. Besides, the MIC90 stood at 44.1 µg/mL in data set [11], 43.8 µg/mL (≈ 175 µM) in [12], 10.1 µg/mL (≈ 40.3 µM) in data set [13] and 20.8 µg/mL (≈ 82.9 µM) in data set [14].
In the case of `CCCCCCCc1cc2c(=O)n(CCN=[N+]=[N-])cnc2s1`, the selectivity ratio in [1] is 77; in data set [2], 48; in data set [3] it was 77; in data set [4], 48; in data set [5], > 77; in data set [6], 48. Besides, the selectivity ratio was > 77 in data set [7] and 48 in data set [8]. The GI50 in data set [9], in data set [10], in [15] and in [16] was > 100 µg/mL in each case. The MIC90 in [11] was 6.5 µM; in [12] it was 8.33 µg/mL (≈ 26.1 µM); in data set [13] it was 1.3 µg/mL (≈ 4.07 µM); in [14], 2.26 µg/mL (≈ 7.08 µM).
Consider `CCCCCCc1cc2c(=O)n(CCN=[N+]=[N-])cnc2s1`, for which the selectivity ratio in [1] was determined as 25; in data set [2] it was 12; in data set [3], 4; in data set [4] it was 2; in [5] it was 4; in data set [6] it was 2. Moreover, the selectivity ratio in data set [7] was > 25; in data set [8] it was 12. In addition, the GI50 in data set [9] is > 100 µg/mL; in [10], 14.7 µg/mL (≈ 48.1 µM); in data set [15], > 100 µg/mL; in data set [16] it was 16.2 µg/mL (≈ 52.9 µM). For the same compound, the MIC90 in data set [11] was determined as 8.42 µg/mL; in data set [12], 11.5 µg/mL (≈ 37.8 µM); in data set [13] it was 4.08 µg/mL (≈ 13.4 µM); in [14], 4.51 µg/mL (≈ 14.8 µM). The same compound had a GI90 in [17] of 74.66 µg/mL (≈ 244 µM).
On to `CCCCCc1cc2c(=O)n(CCC)cnc2s1`, for which the selectivity ratio was determined as 12 in [1]; 2 in data set [2]; 12 in [3]; 2 in data set [4]; 3 in data set [5]; 1 in [6]. For the same compound, the results for the selectivity ratio in data set [7] and in data set [8] were 4 and 1, respectively. The GI50 in data set [9] was > 100 µg/mL; in [10], > 100 µg/mL; in data set [15] it was 33.8 µg/mL (≈ 128 µM); in data set [16], 27.4 µg/mL (≈ 103 µM). Also, the MIC90 in data set [11] came out at 42.9 µg/mL; in data set [12], 36.3 µg/mL (≈ 137 µM); in data set [13], 8.51 µg/mL (≈ 32.2 µM); in [14], 9.82 µg/mL (≈ 37.1 µM).
For the compound `CCCCCc1cc2c(=O)n(CC3CC3)cnc2s1`, the selectivity ratio in data set [1] was 20; in data set [2], 3; in data set [3], 20; in data set [4], 3; in data set [5], > 20; in data set [6], 3. Moreover, the selectivity ratio is > 20 in data set [7] and 3 in data set [8]. For the same compound, the GI50 in data set [9], in data set [10], in [15] and in [16] was > 100 µg/mL each time. Also, the MIC90 was 38.3 µg/mL in [11], > 50 µg/mL in data set [12], 4.95 µg/mL (≈ 17.9 µM) in data set [13] and 8.07 µg/mL (≈ 29.2 µM) in [14].
As to `C=CCCCCCCCc1cc2c(=O)n(CCBr)cnc2s1`, the selectivity ratio was 41 in data set [1]; 29 in [2]; 18 in data set [3]; 12 in [4]; 19 in [5]; 13 in [6]. The selectivity ratio was found to be 11 in data set [7] and 7 in data set [8]. Also, the GI50 in [9] was > 100 µg/mL; in data set [10] it was 42.4 µg/mL (≈ 111 µM); in [15], 26.1 µg/mL (≈ 68.1 µM); in data set [16], 45.4 µg/mL (≈ 119 µM). The MIC90 in data set [11] was determined as 3.5 µg/mL; in [12], 6.31 µg/mL (≈ 16.5 µM); in [13], 2.42 µg/mL (≈ 6.31 µM); in data set [14], 1.4 µg/mL (≈ 3.65 µM).
In the case of `CCCCCCCc1cc2c(=O)n(CC#N)cnc2s1`, the selectivity ratio in data set [1] is 53; in data set [2], 40; in data set [3], 53; in data set [4], 40; in data set [5], > 53; in data set [6], 40. Also, the selectivity ratio in data set [7] is > 53; in data set [8], 40. Further, the GI50 in data set [9], in data set [10], in [15] and in data set [16] was > 100 µg/mL in each case. In addition, the MIC90 stood at 8.68 µM in data set [11], 5.2 µg/mL (≈ 18 µM) in [12], 1.89 µg/mL (≈ 6.53 µM) in data set [13] and 3.02 µg/mL (≈ 10.4 µM) in data set [14].
As to `CCCCCCCc1cc2c(=O)n(CC3CC3)cnc2s1`, the selectivity ratio in data set [1] was 66; in data set [2], 2; in [3], 66; in [4] it was 2; in data set [5], > 66; in data set [6], 2. For the same compound, the selectivity ratio is > 66 in [7] and 2 in data set [8]. The GI50 in data set [9], in data set [10], in data set [15] and in [16] was > 100 µg/mL each time. For the same compound, the MIC90 in data set [11] amounted to 49.3 µg/mL; in data set [12], 49.1 µg/mL (≈ 161 µM); in [13], 1.52 µg/mL (≈ 4.99 µM); in [14], 2.01 µg/mL (≈ 6.6 µM).

For orientation: GI50 means the concentration giving 50% growth inhibition. Low readings indicate more potent growth inhibition, high ones less potent growth inhibition. By MIC90 is commonly meant the lowest concentration that inhibits either 90% of growth or 90% of the strains tested, depending on the study.
